From patent US12060351B2, “Thiadiazole IRAK4 inhibitors” (Gilead Sciences, Inc., priority 2018, dated 2024)
Read-outs that look alike come from different tables or passages of the source.

Columns and labels:
[1] = tested on: TNFα; test: IRAK4 Monocyte TNFα Cell Based Assay (LPS-stimulated, TR-FRET TNFα detection); set-up: species or system human; conditions: read-out: EC50 MONO TNF HTRF
How it was run: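 Monocytes (5,000 cells/well) treated with compound (0.1% DMSO) for 1 hour at 37° C, then stimulated with 50 pg/ml LPS for 4 hours. TNFα in medium quantified by TR-FRET two-antibody detection after overnight room-temperature incubation. Percent of control calculated against unstimulated (0%) and LPS-stimulated (100%) cells.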

[2] = molecular target: T1, IRAK4 enzyme (Homo sapiens, UniProt Q9NWZ3); test: IRAK4 Biochemical Assay (TR-FRET, STK1 KinEASE); conditions: 500 μM ATP, Table 2 second part (compounds 33-343), read-out: IC50 IRAK4-HTBS
T1 construct: purchased Carna Biosciences, Chuo-ku, Kobe, Japan
T1 sequence (Q9NWZ3 1-460): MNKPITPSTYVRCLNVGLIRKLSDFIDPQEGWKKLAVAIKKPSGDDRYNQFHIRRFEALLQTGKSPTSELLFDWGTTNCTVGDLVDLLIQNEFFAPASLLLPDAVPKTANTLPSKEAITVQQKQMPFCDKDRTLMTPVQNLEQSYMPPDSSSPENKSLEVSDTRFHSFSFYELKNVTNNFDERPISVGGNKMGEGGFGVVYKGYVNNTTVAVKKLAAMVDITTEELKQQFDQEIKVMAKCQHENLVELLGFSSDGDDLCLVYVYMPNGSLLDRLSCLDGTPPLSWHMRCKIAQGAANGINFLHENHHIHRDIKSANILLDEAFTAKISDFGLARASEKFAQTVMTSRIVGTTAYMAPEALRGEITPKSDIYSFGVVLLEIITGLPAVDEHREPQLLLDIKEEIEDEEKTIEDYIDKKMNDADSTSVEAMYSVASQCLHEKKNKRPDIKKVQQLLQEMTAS
How it was run: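 Human IRAK4 (0.75 nM) preincubated 15 min with compound and 2 μM STK1 peptide, then reacted 120 min at room temperature with 500 μM ATP in HEPES pH 7.0 buffer with MgCl2 and DTT. EDTA stop with Cryptate anti-phosphopeptide antibody and tracer, 60 min; TR-FRET read as 665/615 nm ratio.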

[3] = Homo sapiens, Monocyte, human monocytes, LPS-stimulated, Table 2 second part (compounds 33-343)

Compound	EC50 [1, 3]	IC50 [2]	EC50 ([1]; human monocytes, LPS-stimulated, Table 2 second part (compounds 33-343))	EC50 ([1]; Homo sapiens, Monocyte)
CC(=O)N[C@H]1C[C@H](c2nnc(-c3cnc(-c4ccc5cc(C#N)cnn45)cc3NC3COC3)s2)C1 [Example 202, N-((1r,3r)-3-(5-(6-(3-cyanopyrrolo[1,2-b]pyridazin-7-yl)-4-(oxctan-3-ylamino)pyridin-3-yl)-1,3,4-thiadiazol-2-yl)cyclobutyl)acetamide]	166 nM	1.23 nM	–	–
COC(=O)N1CCN(C(=O)N[C@@H]2[C@@H]3CC[C@H]2CN(c2nnc(-c4cnc(-c5ccc6cc(C#N)cnn56)cc4NC(C)C)s2)C3)CC1 [Example 105, methyl 4-(((1R,5S,8s)-3-(5-(6-(3-cyanopyrrolo[1,2-b]pyridazin-7-yl)-4-(isopropylamino)pyridin-3-yl)-1,3,4-thiadiazol-2-yl)-3-azabicyclo[3.2.1]octan-8-yl)carbamoyl)piperazine-1-carboxylate]	4.2 nM	0.98 nM	–	–
CC(=O)N[C@]1(C)[C@@H]2CC[C@H]1CN(c1nnc(-c3cnc(-c4ccc5cc(C#N)cnn45)cc3N[C@H](C)C#N)s1)C2 [Example 157, N-((1R,5S,8S)-3-(5-(4-(((R)-1-cyanoethyl)amino)-6-(3-cyanopyrrolo[1,2-b]pyridazin-7-yl)pyridin-3-yl)-1,3,4-thiadiazol-2-yl)-8-methyl-3-azabicyclo[3.2.1]octan-8-yl)acetamide]	1.8 nM	1.03 nM	–	–
COC(=O)NC[C@H]1C[C@H](Nc2cc(-c3ccc4cc(C#N)cnn34)ncc2-c2nnc([C@H]3CC[C@H](NC(=O)C4CC4)CC3)s2)C1 [Example 134, methyl (((1R,3r)-3-((2-(3-cyanopyrrolo[1,2-b]pyridazin-7-yl)-5-(5-((1r,4R)-4-(cyclopropanecarboxamido)cyclohexyl)-1,3,4-thiadiazol-2-yl)pyridin-4-yl)amino)cyclobutyl)methyl)carbamate]	6.9 nM	0.94 nM	–	–
7-(5-(5-(4-aminobicyclo[2.2.2]octan-1-yl)-1,3,4-thiadiazol-2-yl)-4-((tetrahydro-2H-pyran-4-yl)amino)pyridin-2-yl)pyrrolo[1,2-b]pyridazine-3-carbonitrile [Example 336]	–	0.7 nM	11 nM	–
CC(=O)N[C@@H]1[C@@H]2C[C@H]1CN(c1nnc(-c3cnc(-c4ccc5cc(C#N)cnn45)cc3NC3COC3)s1)C2 [Example 179, N-((1R,5S,6s)-3-(5-(6-(3-cyanopyrrolo[1,2-b]pyridazin-7-yl)-4-(oxetan-3-ylamino)pyridin-3-yl)-1,3,4-thiadiazol-2-yl)-3-azabicyclo[3.1.1]heptan-6-yl)acetamide]	–	0.37 nM	–	6.4 nM
COC(=O)NC[C@H]1C[C@H](Nc2cc(-c3ccc4cc(C#N)cnn34)ncc2-c2nnc(N3C[C@H]4CC[C@@H](C3)[C@@H]4NC(C)=O)s2)C1 [Example 52, methyl (((1R,3r)-3-((5-(5-((1R,5S,8S)-8-acetamido-3-azabicyclo[3.2.1]octan-3-yl)-1,3,4-thiadiazol-2-yl)-2-(3-cyanopyrrolo[1,2-b]pyridazin-7-yl)pyridin-4-yl)amino)cyclobutyl)methyl)carbamate]	4.1 nM	0.82 nM	–	–
CC(=O)N[C@@H]1[C@@H]2CN(c3nnc(-c4cnc(-c5ccc6cc(C#N)cnn56)cc4NC(C)C)s3)C[C@@H]21 [Compound 239, N-((1R,5S,6r)-3-(5-(6-(3-cyanopyrrolo[1,2-b]pyridazin-7-yl)-4-(isopropylamino)pyridin-3-yl)-1,3,4-thiadiazol-2-yl)-3-azabicyclo[3.1.0]hexan-6-yl)acetamide]	4.9 nM	0.11 nM	–	–
CC(=O)N[C@H]1CC[C@H](c2nnc(-c3cnc(-c4ccc5cc(C#N)cnn45)cc3NC34CCC(O)(CC3)CC4)s2)CC1 [Compound 241, N-((1r,4r)-4-(5-(6-(3-cyanopyrrolo[1,2-b]pyridazin-7-yl)-4-((4-hydroxybicyclo[2.2.2]octan-1-yl)amino)pyridin-3-yl)-1,3,4-thiadiazol-2-yl)cyclohexyl)acctamide]	4.8 nM	1.39 nM	–	–
CC(=O)N[C@H]1[C@@H]2CCC[C@H]1CN(c1nnc(-c3cnc(-c4ccc5cc(C#N)cnn45)cc3NC(C)C)s1)C2 [Example 165, N-((1R,5S,9r)-3-(5-(6-(3-cyanopyrrolo[1,2-b]pyridazin-7-yl)-4-(isopropylamino)pyridin-3-yl)-1,3,4-thiadiazol-2-yl)-3-lazabicyclo[3.3.1]nonan-9-yl)acetamide]	39.1 nM	1.15 nM	–	–
CC(C)Nc1cc(-c2ccc3cc(C#N)cnn23)ncc1-c1nnc(N2C[C@H]3CC[C@@H](C2)[C@@H]3N2CCOC2=O)s1 [Compound 301, 7-(4-(isopropylamino)-5-(5-((1R,5S,8s)-8-(2-oxooxazolidin-3-yl)-3-azabicyclo[3.2.1]octan-3-yl)-1,3,4-thiadiazol-2-yl)pyridin-2-yl)pyrrolo[1,2-b]pyridazine-3-carbonitrile]	4.9 nM	1.04 nM	–	–
CC(=O)N[C@H]1CC[C@H](c2nnc(-c3cnc(-c4ccc5cc(C#N)cnn45)cc3NC3CCOCC3)s2)CC1 [Compound 255, N-((1r,4r)-4-(5-(6-(3-cyanopyrrolo[1,2-b]pyridazin-7-yl)-4-((tetrahydro-2H-pyran-4-yl)amino)pyridin-3-yl)-1,3,4-thiadiazol-2-yl)cyclohexyl)acetamide]	5.1 nM	0.63 nM	–	–
N#Cc1cnn2c(-c3cc(NC4COC4)c(-c4nnc([C@H]5CC[C@@H](NC(=O)C6CC6)CC5)s4)cn3)ccc2c1 [Example 203, N-((1s,4s)-4-(5-(6-(3-cyanopyrrolo[1,2-b]pyridazin-7-yl)-4-(oxetan-3-ylamino)pyridin-3-yl)-1,3,4-thiadiazol-2-yl)cyclohexyl)cyclopropanecarboxamide]	13.7 nM	0.83 nM	–	–
CC(C)Nc1cc(-c2ccc3cc(C#N)cnn23)ncc1-c1nnc(N2C3CC2CN(C(=O)CN=S(C)(C)=O)C3)s1 [Compound 276, 7-(5-(5-(3-(2-((dimethyl(oxo)-16-sulfanylidene)amino)acetyl)-3,6-diazabicyclo[3.1.1]heptan-6-yl)-1,3,4-thiadiazol-2-yl)-4-(isopropylamino)pyridin-2-yl)pyrrolo[1,2-b]pyridazinc-3-carbonitrile]	7.8 nM	0.89 nM	–	–
COC(=O)N[C@@H]1[C@@H]2CC[C@H]1CN(c1nnc(-c3cnc(-c4ccc5cc(C#N)cnn45)cc3NC(C)C)s1)C2 [Example 59, methyl ((1R,5S,8s)-3-(5-(6-(3-cyanopyrrolo[1,2-b]pyridazin-7-yl)-4-(isopropylamino)pyridin-3-yl)-1,3,4-thiadiazol-2-yl)-3-azabicyclo[3.2.1]octan-8-yl)carbamate]	14.7 nM	1.97 nM	–	–
COC(=O)NC[C@H]1C[C@H](Nc2cc(-c3ccc4cc(C#N)cnn34)ncc2-c2nnc(N3CCN4CCOC[C@H]4C3)s2)C1 [Example 51, methyl (((1R,3r)-3-((2-(3-cyanopyrrolo[1,2-b]pyridazin-7-yl)-5-(5-((R)-hexahydropyrazino[2,1-c][1,4]oxazin-8(1H)-yl)-1,3,4-thiadiazol-2-yl)pyridin-4-yl)amino)cyclobutyl)methyl)carbamate]	4.7 nM	1.73 nM	–	–
CC1(Nc2cc(-c3ccc4cc(C#N)cnn34)ncc2-c2nnc(N3C[C@H]4CC[C@@H](C3)[C@H]4O)s2)COC1 [Example 149, 7-(5-(5-((1R,5S,8r)-8-hydroxy-3-azabicyclo[3.2.1]octan-3-yl)-1,3,4-thiadiazol-2-yl)-4-((3-methyloxetan-3-yl)amino)pyridin-2-yl)pyrrolo[1,2-b]pyridazine-3-carbonitrile]	4.9 nM	0.31 nM	–	–
COC(=O)N[C@H]1CC[C@H](Nc2cc(-c3ccc4cc(C#N)cnn34)ncc2-c2nnc(N3C[C@H]4CC[C@@H](C3)[C@@H]4NC(C)=O)s2)CC1 [Example 54, methyl ((1R,4r)-4-((5-(5-((1R,5S,8S)-8-acetamido-3-azabicyclo[3.2.1]octan-3-yl)-1,3,4-thiadiazol-2-yl)-2-(3-cyanopyrrolo[1,2-b]pyridazin-7-yl)pyridin-4-yl)amino)cyclohexyl)carbamate]	2.4 nM	0.73 nM	–	–
N#Cc1cnn2c(-c3cc(NC4COC4)c(-c4nnc([C@H]5CC[C@H](NC(=O)N6CCOCC6)CC5)s4)cn3)ccc2c1 [Example 142, N-((1r,4r)-4-(5-(6-(3-cyanopyrrolo[1,2-b]pyridazin-7-yl)-4-(oxetan-3-ylamino)pyridin-3-yl)-1,3,4-thiadiazol-2-yl)cyclohexyl)morpholine-4-carboxamide]	9.2 nM	0.38 nM	–	–
